# Experimental data from PMC7235904, “Is Blood a Good Indicator for Detecting Antimicrobials in Meat? Evidence for the Development of In Vivo Surveillance Methods” (Antibiotics, 2020).
# “Also recorded” adds a separate entry of the source.
# Assay: Relationship between concentrations detected in paired blood and muscle samples
# Assay type: in vivo, pigs
# Conditions: paired pig blood and muscle samples
# Procedure: After administration, animals were slaughtered at preset intervals within the withdrawal period in order to obtain samples containing different antimicrobial concentrations above and below the MRLs for muscle. Figure S1 indicates the slaughter days and the withdrawal periods set by the manufacturer for each antimicrobial compound administered. Between one and three piglets were slaughtered on the same day post-administration. The day of slaughter was calculated from the first day after the last antimicrobial treatment dose. […] Apart from samples containing antimicrobial compounds administered in vivo, and as a part of the sample bank, 15 of the 93 piglets were slaughtered after the acclimatization period and before treatment onset. Animals were stunned and slaughtered following the guidelines established by European Council Regulation (EC) No. 1099/2009 [39] regarding the protection of animals at the time of slaughter or killing. A penetrative captive bolt gun was used to stun the pigs, positioning it firmly against the skin, in the middle of the forehead, 2 cm above the line of the eyes, aiming towards the tail. […]
# Data were analyzed and submitted to comparison of averages via ANOVA, followed by a post-hoc Tukey test and t-tests with GraphPad PRISM. […]
smiles,measurement,value
"COc1ccc(NS(=O)(=O)c2ccc(N)cc2)nn1 [Sulfamethoxypyridazine, sulfamethoxypyridazine]",Concentration in blood compared to muscle,three times higher in blood; also recorded: around three times higher
